Reference: patent US5188952A, “Process for the decomposition of acrylamide” (Imperial Chemical Industries PLC, priority 1986, dated 1993)

Test system: Methylophilus methylotrophus amidase (acylamide amidohydrolase EC No. 3-5-1-4)
Experiment: Methylophilus methylotrophus amidase properties (Km)
Type: biochemical
Conditions: substrate of the amidase; conditions not given

| Compound | Km [mM] |
| --- | --- |
| C=CC(N)=O [Acrylamide] | 10 |
| CC(N)=O [Acetamide] | 0.2 |
